Experimental data from patent US20230092495A1, “SOLID FORMS OF TEZACAFTOR AND PROCESSES FOR THE PREPARATION THEREOF” (QUÍMICA SINTÉTICA, S.A., priority 2020, published 2023).

Legend:
[1] = Stability of amorphous tezacaftor, polymorphic stability by XRPD; format: physicochemical
From the text: (§1) Unless otherwise indicated, in the context of the present invention a range of values indicated for a certain parameter, for example the weight of a component in a mixture, includes the upper and the lower limits of the range, e.g. if the content in weight, or in volume, of a component A in a mixture is indicated as “X to Y”, the content of A can be X, Y or any of the intermediate values. By “polymorphically stable” it is meant that the crystalline form B and the amorphous form of the present invention, when stored (I) at 70° C. under reduced pressure for at least 1 hour (preferably for 5 hours, more preferably for 10 hours, even more preferably for 12 hours), (II) at 60° C. for at least 1 day (preferably for 5 days, more preferably for 10 days, even more preferably for 15 days), (III) at 40° C. and 75% RH for at least 1 day (preferably for 5 days, more preferably for 10 days, even more preferably for 15 days), and/or (IV) at 25-30° C. and 80% RH for at least 1 day (preferably for 5 days, more preferably for 10 days, even more preferably for 15 days), show no signs of transformation into a different crystalline tezacaftor (e.g. Form A) as evaluated by the absence of peaks in an X-ray powder diffractogram (XRPD).
(§2) XRPD analyses were performed at 20-30° C. by means of a theta/theta vertical scan Bruker AXS D8 Advance high-performance diffractometer. The instrument was equipped with a Cu-Kα X-ray tube operating at 40 kV/40 mA and generating radiation having λ=1.5418 Å. The detector was a linear Lynxeye XE-T position sensitive set at 250 mm from the sample. Powder samples were deposited in the 20 mm×0.5 mm hollow of the sample holder, consisting of a quartz monocrystal zero background plate. A mild grinding of the sample in an agate mortar may be needed to obtain a suitable fine powder. Diffraction data were collected applying the following conditions: angular range 2-40° 2-theta, 0.02°/step scan and 1 second acquisition time. The instrument calibration was verified by means of a NIST SRM 1976b. Data acquisition was performed by means of Bruker Diffraction Measurement Center software. Data elaboration was performed by means of Crystal Impact Match!.
The amorphous tezacaftor, prepared as described in Examples 3 to 5, was maintained at 70° C. under a reduced pressure for 12 hours.
The amorphous tezacaftor, prepared as described in Examples 3 to 5, was maintained, in a closed vial, at 60° C. for 15 days.
The amorphous tezacaftor, prepared as described in Examples 3 to 5, was maintained, in an open vial, at 40° C. and 75% RH for 15 days.
The amorphous tezacaftor, prepared as described in Examples 3 to 5, was maintained, in an open vial, at 25-30° C. and 80% RH for 15 days.

[2] = Stressed stability of crystalline tezacaftor form B, polymorphic stability by XRPD; format: physicochemical; conditions: 4 weeks
From the text: as §1
as §2, with “Data acquisition was performed by means of Bruker Diffraction Measurement Center software. Data elaboration was performed by means of Crystal Impact Match!.” left out

## CC(C)(CO)c1cc2cc(NC(=O)C3(c4ccc5c(c4)OC(F)(F)O5)CC3)c(F)cc2n1C[C@@H](O)CO [amorphous tezacaftor, (R)-1-(2,2-difluorobenzo[d][1,3]dioxol-5-yl)-N-(1-(2,3-dihydroxypropyl)-6-fluoro-2-(1-hydroxy-2-methylpropan-2-yl)-1H-indol-5-yl)cyclopropane-1-carboxamide]
[1]; 25-30° C. and 80% RH, open vial, 15 days
  XRPD analysis after storage (polymorphic stability): XRPD spectrum corresponding to the one obtained in example 3
[1]; 40° C. and 75% RH, open vial, 15 days
  XRPD analysis after storage (polymorphic stability): XRPD spectrum corresponding to the one obtained in example 3
[1]; 60° C., closed vial, 15 days
  XRPD analysis after storage (polymorphic stability): XRPD spectrum corresponding to the one obtained in example 3
[1]; 70° C. under reduced pressure, 12 hours
  XRPD analysis after storage (polymorphic stability): XRPD spectrum corresponding to the one obtained in example 3

## CC(C)(CO)c1cc2cc(NC(=O)C3(c4ccc5c(c4)OC(F)(F)O5)CC3)c(F)cc2n1C[C@@H](O)CO [crystalline tezacaftor, (R)-1-(2,2-difluorobenzo[d][1,3]dioxol-5-yl)-N-(1-(2,3-dihydroxypropyl)-6-fluoro-2-(1-hydroxy-2-methylpropan-2-yl)-1H-indol-5-yl)cyclopropane-1-carboxamide]
[2]; 20-25° C., 80% relative humidity, open vial
  XRPD analysis after storage (polymorphic stability): XRPD diffractogram corresponding to the one obtained in example 1
[2]; 40° C. and 75% RH, open vial
  XRPD analysis after storage (polymorphic stability): XRPD diffractogram corresponding to that obtained in example 1
[2]; 60° C., closed vial
  XRPD analysis after storage (polymorphic stability): XRPD diffractogram corresponded to that obtained from the sample of example 1
